Earlier results, collected in patent US12569571B2, “Salt responsive nanogels and nanoparticles” (HOWARD UNIVERSITY, priority 2016, dated 2026).

Conditions: studies have shown

In the case of `CNC` [dimethylamine], the “pKa (apparent pKa for PEI)” value is listed as “about 10”.
